Two compounds from patent US20230133114A1, “COMPOSITIONS AND METHODS CONTAINING REDUCED NICOTINAMIDE RIBOSIDE FOR PREVENTION AND TREATMENT OF VIRAL AND BACTERIAL INFECTIONS” (SOCIETE DES PRODUITS NESTLE S.A., priority 2020, published 2023) can be followed below.

One data set deals with Splenocytes. Put plainly: Intracellular NAD+ in splenocytes. Type of data set: cell-based. Particulars: splenocytes from 1 year old mice, 2 hours. The procedure:
Then, 2 hours later, intracellular NAD+ levels were measured. * indicates p<0.05 vs. Control (0 mM) group. […] Then, 2 hours later, intracellular NAD+ levels were measured as described above.

The nature of data set [1]: NRH levels in lung after oral gavage. Type of data set: in vivo. Particulars: mice, oral gavage of stable isotope-labelled NRH 250 mg/kg, 2 hours. As for the experimental part: 8 week-old C57BI/6NTac mice were orally gavaged with either saline (as vehicle), and an stable isotope-labelled NRH (250 mg/kg). After 2 hours, NRH levels in the lung were evaluated. All results are expressed as mean +/-SE of n=4 mice per group, as areas under the signal by LC-MS analysis, corrected by total protein amount of tissue.
(§1) Levels of NRH and other NAD-related metabolites in biological samples were obtained by using a cold liquid-liquid extraction using a mixture of methanol:water:chloroform in 5:3:5 (v/v), from which the polar phase was recovered for hydrophilic interaction ultra-high performance liquid chromatography mass spectrometry (UHPLC-MS) analysis. The UHPLC consisted of a binary pump, a cooled autosampler, and a column oven (DIONEX Ultimate 3000 UHPLC+ Focused, Thermo Scientific), connected to a triple quadrupole spectrometer (TSQ Vantage, Thermo Scientific) equipped with a heated electrospray ionisation (H-ESI) source. […]
8 week-old C57BI/6NTac mice were orally gavaged with either saline (as vehicle), and an stable isotope-labelled NRH (250 mg/kg). After 2 hours, NRH levels in the lung were evaluated. All results are expressed as mean +/-SE of n=4 mice per group, as areas under the signal by LC-MS analysis, corrected by total protein amount of tissue (FIG. 4).

For data set [2], the system named is NAD+ levels. Put plainly: Tissue NAD+ levels after IP injection in mice. Particulars: IP 500 mg/kg, after 1 h. Type of data set: in vivo. From the text:
(§2) Levels of NRH and other NAD-related metabolites in biological samples were obtained by using a cold liquid-liquid extraction using a mixture of methanol:water:chloroform in 5:3:5 (v/v), from which the polar phase was recovered for hydrophilic interaction ultra-high performance liquid chromatography mass spectrometry (UHPLC-MS) analysis. The UHPLC consisted of a binary pump, a cooled autosampler, and a column oven (DIONEX Ultimate 3000 UHPLC+ Focused, Thermo Scientific), connected to a triple quadrupole spectrometer (TSQ Vantage, Thermo Scientific) equipped with a heated electrospray ionisation (H-ESI) source. Of each sample, 2 µL were injected into the analytical column (2.1 mm × 150 mm, 5 µm pore size, 200 Å HILICON iHILIC®-Fusion(P)), guarded by a pre-column (2.1 mm × 20 mm, 200 Å HILICON iHILIC®-Fusion(P) Guard Kit) operating at 35° C. The mobile phase (10 mM ammonium acetate at pH 9, A, and acetonitrile, B) was pumped at 0.25 mL/min flow rate over a linear gradient of decreasing organic solvent (0.5-16 min, 90-25% B), followed by re-equilibration for a total run time of 30 min. The MS operated in positive mode at 3500 V with multiple reaction monitoring (MRM). The software Xcalibur v4.1.31.9 (Thermo Scientific) was used for instrument control, data acquisition and processing. Retention time and mass detection was confirmed by authentic standards.
The above results prompted us to test whether NRH could act as an effective NAD+ precursor in vivo. For this, we first intraperitoneally (IP) injected mice with either NR or NRH (500 mg/kg). […] Importantly, NRH was detectable in circulation after IP injection.

Data set [3] relates to NAD+ levels. Put plainly: Hepatic NAD+ levels after oral administration in mice. Type of data set: in vivo. Particulars: oral administration (FIG. 2: 500 mg/kg, 1 hour). As for the experimental part: 8 week-old C57BI/6NTac mice were orally gavaged with either saline (as vehicle), NR (500 mg/kg) or NRH (500 mg/kg). After 1 hour, liver, skeletal muscle and kidney NAD^+ levels were evaluated. All results are expressed as mean +/-SEM of n=5 mice per group. * indicates statistical difference at p<0.05 vs. vs. saline-treated mice. # indicates statistical difference at p<0.05 vs. NR treated mice.
as §1, with “source. Of each sample, 2 µL were injected into the analytical column (2.1 mm × 150 mm, 5 µm pore size, 200 Å HILICON iHILIC®-Fusion(P)), guarded by a pre-column (2.1 mm × 20 mm, 200 Å HILICON iHILIC®-Fusion(P) Guard Kit) operating at 35° C.” for “source.”

A further data set relates to RAW 264.7 macrophages. As to the kind of experiment: Intracellular NAD+ in cultured RAW 264.7 macrophages. Conditions: 1 hour. The class given is cell-based. As for the experimental part: RAW 264.7 macrophages were treated with dihydronicotinamide riboside (NRH) at the concentrations indicated. […] Control (0 mM) group. RAW 264.7 macrophages were treated with dihydronicotinamide riboside (NRH) at the concentrations indicated.

Data set [4] deals with Mouse bone marrow derived macrophages. Put plainly: Intracellular NAD+ in cultured bone marrow derived macrophages. The class given is cell-based. Particulars: 1 or 2 hours. As for the experimental part: Mouse bone marrow derived macrophages were treated with dihydronicotinamide riboside (NRH) at the concentrations indicated, using PBS as control. […] Control group. Mouse bone marrow derived macrophages were treated with dihydronicotinamide riboside (NRH) at the concentrations indicated, using PBS as control.

A further data set in a line: Stability in water. Type of data set: physicochemical. Conditions: pH=7, room temperature, 48 h. As for the experimental part: (§3) NR degradation to NAM has been proposed as a limitation for its pharmacological efficacy. To evaluate whether NRH was also susceptible to degradation to NAM, we spiked NRH or NR in isolated mouse plasma. […] We also tested the stability of NRH in other matrixes. […] Finally, we also certified NRH stability in water (pH=7, at room temperature) for 48 h.

A short description of data set [5]: Stability in FBS supplemented media. Type of data set: in vitro ADME. As for the experimental part:
as §3

Data set [6] is described as follows: Plasma NRH, NR and NAM after oral administration in mice. Type of data set: in vivo.
Text: as §2
Oral administration of NRH led to very similar results to those observed after IP administration. […] NRH was detectable in plasma 1 h after oral administration. In contrast, NR levels were undetectable at 1 h after NR administration.

The test system of data set [7] is Salmonella enterica serovar Typhimurium. Put plainly: Anti-bacterial response of monocyte-derived macrophages against Salmonella (CFU counts). The class given is cell-based. Particulars: 0.01 mM for 42 h prior to infection, MOI 10, 1 h; gentamicin 2 h. The procedure: Monocyte-derived macrophages were treated with 0.01 mM NRH for 42 h prior to infection with Salmonella enterica serovar Typhimurium for 1 h using a multiplicity of infection of 10. Following infection, macrophages were treated with gentamicin for 2 h before cell lysis. Values show absolute colony forming unit (CFU) counts with each dot representing one donor and each line representing paired samples. Graphs show pooled data of 2 independent experiments with 2-3 donors/experiment.
Monocyte-derived macrophages were treated with 0.01 mM NRH for 42 h prior to infection with Salmonella enterica serovar Typhimurium for 1 h using a multiplicity of infection of 10. Following infection, macrophages were treated with gentamicin for 2 h before cell lysis. Values show absolute colony forming unit (CFU) counts with each dot representing one donor and each line representing paired samples. Graphs show pooled data of 2 independent experiments with 2-3 donors/experiment. (FIG. 5).

Data set [8] is described as follows: Circulating NRH, NR and NAM after IP injection in mice. Type of data set: in vivo.
Text: as §2, with “standards. […]” for “standards.”

Data set [9] in a line: Stability of NRH or NR spiked in isolated mouse plasma. Type of data set: in vitro ADME. Particulars: for levels of spiked compound in plasma: isolated mouse plasma, 2 h of incubation.
Text: as §2, §3

Data set [10] can be described thus: NRH levels in liver, kidney and muscle after oral gavage. Conditions: mice, oral gavage 250 mg/kg, 2 hours. The class given is in vivo. The procedure:
8 week-old C57BI/6NTac mice were orally gavaged with either saline (as vehicle), and NRH (250 mg/kg). After 2 hours, liver, skeletal muscle and kidney NRH levels were evaluated. All results are expressed as mean +/-SEM of n=4 mice per group, as areas under the signal by LC-MS analysis, corrected by total protein amount of tissue.
as §2

Counter-ions that a name gives are not always drawn.

In the case of `NC(=O)C1=CN([C@@H]2O[C@H](CO)[C@@H](O)[C@H]2O)C=CC1` [NRH, dihydronicotinamide riboside], in the data set with Splenocytes, the “intracellular NAD+ levels” value was “increases NAD+”. In [1], the NRH in lung result is on record as “efficient biodistribution in the lung”. In the data set on NAD+ levels [2], the “NAD+ levels in kidney” value was “increased”, the “NAD+ levels in liver” value is given as “increased” and the “NAD+ levels in muscle” value is “increased”. Moreover, in the data set with NAD+ levels [3], the “effect on hepatic NAD+ levels” value is reported as “more potent effect on hepatic NAD+ levels than NR”. Further, in the data set on RAW 264.7 macrophages, the “intracellular NAD+ levels” value is given as “increases NAD+”. Also, in [4], the “intracellular NAD+ levels” value is “increases NAD+”. The stability in water result in the data set “Stability in water” was “stability”. In [5], the “degradation to NAM in FBS supplemented media” value is “did not degrade to NAM”. In data set [6] (mice, 1 h after oral administration), the NRH in plasma entry is given as “detectable”. Also, the “NRH concentration in plasma” value in data set [6] (mice, after oral gavage) was 11.16 ± 1.74 µM. In data set [7], the “anti-bacterial macrophage response against salmonella” value was “able to augment anti-bacterial macrophage response”. In addition, in [8] (after IP treatment, compared with NR injection), the NR in circulation entry is “much higher levels than those detected after NR injection itself”. Further, the “levels of spiked compound in plasma” value in [9] was “remained stable”. For the same compound, the “NR production on incubation in isolated plasma” value in data set [9] (isolated plasma) was “did not lead to NR production”. Besides, in data set [10], the NRH in kidney result was “found intact, in high levels”; the NRH in liver result is on record as “found intact, in high levels”; the NRH in muscle entry is reported as “found intact, in high levels”.
In the case of `NC(=O)c1ccc[n+]([C@@H]2O[C@H](CO)[C@@H](O)[C@H]2O)c1` [NR, 1-b-D-ribofuranosyl-3-pyridinecarboxamide salt, reference compound], in the data set on NAD+ levels [2], the “NAD+ levels in kidney” value was “increased”, the “NAD+ levels in liver” value is reported as “increased” and the “NAD+ levels in muscle” value was “increased”. Also, in [5], the “degradation to NAM in FBS supplemented media” value was “occurs”. For the same compound, the “circulating NAM relative to that after NRH treatment” value in data set [6] (C57BL/6NTac, mouse, in vivo, po, 1 h) is on record as ~ 4 fold. For the same compound, the “circulating NAM” value in [6] (mouse, in vivo, po) is on record as “large increases”. The “NAM levels in circulation” value in data set [8] (IP 500 mg/kg) is “highly increased”. In data set [9], the “levels of spiked compound in plasma” value is on record as “decayed”.
